Laboratory results published in US20240217977A1, “DIAZEPANONE-FUSED PYRIMIDINE COMPOUNDS, COMPOSITIONS AND MEDICINAL APPLICATIONS THEREOF” (Blueprint Medicines Corporation, priority 2021, published 2024).

Experiments:
Format in all cases: cell-based
[1] = biological target: EGFR (A767_dupASV) expressing Ba/F3 stable cell line (Homo sapiens, UniProt P00533, DUP767-769, cells depend on it); assay: Cellular proliferation (Alamar Blue) assay, EGFR (A767_dupASV) Ba/F3; conditions: 72 hr incubation, read-out: A767 IC50
Procedure: (§1) Example 2: Cellular Proliferation (Alamar Blue) Assays
(§2) • 1. EGFR(D770_N771insSVD) expressing Ba/F3 stable cell line • 2. EGFR (A767_dupASV) expressing Ba/F3 stable cell line • 3. A431 cells • 4. EGFR (H773insNPH) expressing Ba/F3 stable cell line • 5. HER2 (A775_G775insYVMA) expressing Ba/F3 stable cell line
(§3) • 1. Seed cells at 5000 for A431 and 15,000 cells for Ba/F3 in 100 μL/well in complete media (for A431: DMEM with 10% FBS and for Ba/F3 cells: RPMI with 10% FBS) in • 96-well tissue culture plate. Leave outer wells without cells for background measurements. Incubate at 37 degree Celsius in 5% C02 humidified incubator for 16-18 hours. • 2. Add 0.025 ml of 5× concentration compound dilution or DMSO control. Final compound concentration range is 10-0.0005 μM prepared in 3-fold serial dilutions. Incubate for 72 hr at 37 degree Celsius in 5% CO2 humidified incubator. • 3. Add 0.0125 ml Alamar Blue™ reagent to each well with multi-channel pipette and tap gently on each side of the plate to mix. Incubate for 3 hours at 37 degree Celsius in 5% CO2 humidified incubator. • 4. Read plates on fluorescence reader (Tecan Spark Control, Device: Spark, Serial #: 1801006040) at 540 nm excitation, 590 nm emission wavelength. • 5. Data analysis was performed using XLfit 5.5.0.5.

A431 cells = assay: Cellular proliferation (Alamar Blue) assay, A431 cells; conditions: Homo sapiens, A-431, 72 hr incubation
Procedure: as §1, §2, §3

[2] = biological target: EGFR(D770_N771insSVD) expressing Ba/F3 stable cell line (Homo sapiens, UniProt P00533, DUP768-770, cells depend on it); assay: Cellular proliferation (Alamar Blue) assay, EGFR(D770_N771insSVD) Ba/F3; conditions: 72 hr incubation, read-out: D770 IC50
Procedure: as §1, §2, §3

Chain of EGFR (A767_dupASV) expressing Ba/F3 stable cell line (P00533 with tags, fused parts or gaps DUP767-769): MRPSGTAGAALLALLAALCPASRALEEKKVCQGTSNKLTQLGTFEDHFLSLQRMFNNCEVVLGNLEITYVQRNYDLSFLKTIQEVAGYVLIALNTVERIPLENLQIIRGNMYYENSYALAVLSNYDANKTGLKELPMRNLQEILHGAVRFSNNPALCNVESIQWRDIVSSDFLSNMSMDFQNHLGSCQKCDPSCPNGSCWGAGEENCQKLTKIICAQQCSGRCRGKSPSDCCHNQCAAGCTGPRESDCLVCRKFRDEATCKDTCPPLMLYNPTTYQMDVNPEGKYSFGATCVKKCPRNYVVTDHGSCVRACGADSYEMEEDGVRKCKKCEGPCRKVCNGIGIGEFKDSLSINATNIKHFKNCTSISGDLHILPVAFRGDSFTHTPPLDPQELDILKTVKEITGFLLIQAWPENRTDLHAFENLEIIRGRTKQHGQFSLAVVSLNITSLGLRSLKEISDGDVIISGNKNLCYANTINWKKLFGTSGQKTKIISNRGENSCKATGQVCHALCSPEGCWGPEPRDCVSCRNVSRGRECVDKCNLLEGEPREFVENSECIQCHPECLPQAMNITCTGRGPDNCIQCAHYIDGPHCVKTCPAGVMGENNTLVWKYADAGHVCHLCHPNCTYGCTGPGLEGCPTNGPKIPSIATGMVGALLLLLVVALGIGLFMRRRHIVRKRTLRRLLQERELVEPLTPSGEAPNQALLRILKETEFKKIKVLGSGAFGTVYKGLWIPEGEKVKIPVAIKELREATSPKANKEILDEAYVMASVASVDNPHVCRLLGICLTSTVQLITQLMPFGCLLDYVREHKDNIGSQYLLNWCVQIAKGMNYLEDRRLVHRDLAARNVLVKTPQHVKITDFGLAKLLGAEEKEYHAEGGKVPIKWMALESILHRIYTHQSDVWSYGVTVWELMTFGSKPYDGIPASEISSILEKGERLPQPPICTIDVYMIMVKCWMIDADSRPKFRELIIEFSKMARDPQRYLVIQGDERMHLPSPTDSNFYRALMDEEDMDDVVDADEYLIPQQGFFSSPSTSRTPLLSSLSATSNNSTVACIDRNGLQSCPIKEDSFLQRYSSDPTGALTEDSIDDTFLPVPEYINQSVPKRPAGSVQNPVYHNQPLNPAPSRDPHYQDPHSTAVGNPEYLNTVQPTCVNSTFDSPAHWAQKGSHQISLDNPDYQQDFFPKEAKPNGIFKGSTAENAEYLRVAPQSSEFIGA
Chain of EGFR(D770_N771insSVD) expressing Ba/F3 stable cell line (P00533 with tags, fused parts or gaps DUP768-770): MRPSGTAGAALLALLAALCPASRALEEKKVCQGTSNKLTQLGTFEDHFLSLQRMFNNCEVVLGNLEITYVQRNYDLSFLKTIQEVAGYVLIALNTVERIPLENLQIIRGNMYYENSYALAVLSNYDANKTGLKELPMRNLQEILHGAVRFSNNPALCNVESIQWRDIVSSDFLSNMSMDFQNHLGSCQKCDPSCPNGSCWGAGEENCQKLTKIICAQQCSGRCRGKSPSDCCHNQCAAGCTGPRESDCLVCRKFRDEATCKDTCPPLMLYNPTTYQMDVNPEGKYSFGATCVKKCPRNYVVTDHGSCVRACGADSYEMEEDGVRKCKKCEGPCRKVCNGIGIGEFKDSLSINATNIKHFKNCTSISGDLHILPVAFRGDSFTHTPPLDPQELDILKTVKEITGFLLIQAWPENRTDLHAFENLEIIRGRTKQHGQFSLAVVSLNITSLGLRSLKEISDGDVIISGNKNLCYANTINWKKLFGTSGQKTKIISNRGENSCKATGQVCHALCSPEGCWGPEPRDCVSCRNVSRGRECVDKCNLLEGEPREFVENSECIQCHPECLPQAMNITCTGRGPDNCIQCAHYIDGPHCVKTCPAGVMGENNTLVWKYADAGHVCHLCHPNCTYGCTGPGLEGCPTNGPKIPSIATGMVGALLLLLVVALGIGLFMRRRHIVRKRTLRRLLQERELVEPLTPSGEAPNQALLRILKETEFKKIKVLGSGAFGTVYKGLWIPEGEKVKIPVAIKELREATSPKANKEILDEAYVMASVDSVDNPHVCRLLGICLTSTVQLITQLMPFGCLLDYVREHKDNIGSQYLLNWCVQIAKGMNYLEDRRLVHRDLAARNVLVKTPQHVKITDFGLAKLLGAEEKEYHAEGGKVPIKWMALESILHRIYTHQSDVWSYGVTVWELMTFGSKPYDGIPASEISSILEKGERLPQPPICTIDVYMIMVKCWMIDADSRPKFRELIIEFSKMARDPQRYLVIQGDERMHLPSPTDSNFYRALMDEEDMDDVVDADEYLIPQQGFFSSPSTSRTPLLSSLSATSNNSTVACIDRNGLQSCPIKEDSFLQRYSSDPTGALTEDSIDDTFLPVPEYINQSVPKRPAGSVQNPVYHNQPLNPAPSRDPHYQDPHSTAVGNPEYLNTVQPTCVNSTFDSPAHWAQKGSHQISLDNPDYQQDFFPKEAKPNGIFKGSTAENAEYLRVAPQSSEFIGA

GI50 [1] | IC50 (A431 cells) | GI50 [2] | Compound
9010 nM | 370 nM | 989 nM | CN(C)C/C=C/C(=O)Nc1cccc(N2C(=O)N(c3ccccc3)CCc3cnc(Nc4ccc(C5CCN(C)CC5)cc4)nc32)c1 [Compound 38, (E)-4-(dimethylamino)-N-(3-(2-((4-(1-methylpiperidin-4-yl)phenyl)amino)-8-oxo-7-phenyl-5,6,7,8-tetrahydro-9H-pyrimido[4,5-d][1,3]diazepin-9-yl)phenyl)but-2-enamide]
> 10000 nM | 1220 nM | > 10000 nM | C=CC(=O)Nc1cccc(Nc2ncc3c(n2)N(C)C(=O)N(c2ccccc2)CC3)c1 [Compound 45, N-(3-((9-methyl-8-oxo-7-phenyl-6,7,8,9-tetrahydro-5H-pyrimido[4,5-d][1,3]diazepin-2-yl)amino)phenyl)acrylamide]
606 nM | > 10000 nM | 611 nM | C=CC(=O)Nc1cccc(N2C(=O)N(Cc3ccccc3)CCc3cnc(NC4COC4)nc32)c1 [Compound 27, N-(3-(7-benzyl-2-(oxetan-3-ylamino)-8-oxo-5,6,7,8-tetrahydro-9H-pyrimido[4,5-d][1,3]diazepin-9-yl)phenyl)acrylamide]
> 10000 nM | > 10000 nM | > 10000 nM | C=CC(=O)Nc1cccc(N2C(=O)N(Cc3ccccc3)CCc3cnc(Nc4cccnc4)nc32)c1 [Compound 12, N-(3-(7-benzyl-8-oxo-2-(pyridin-3-ylamino)-5,6,7,8-tetrahydro-9H-pyrimido[4,5-d][1,3]diazepin-9-yl)phenyl)acrylamide]
911 nM | 179 nM | 933 nM | Cc1cc(Nc2ncc3c(n2)N(c2cccc(NC(=O)/C=C/CN(C)C)c2)C(=O)N(Cc2ccccc2)CC3)ccc1N1CCN(C)CC1 [Compound 23, (E)-N-(3-(7-benzyl-2-((3-methyl-4-(4-methylpiperazin-1-yl)phenyl)amino)-8-oxo-5,6,7,8-tetrahydro-9H-pyrimido[4,5-d][1,3]diazepin-9-yl)phenyl)-4-(dimethylamino)but-2-enamide]
329 nM | 114 nM | 940 nM | CN(C)C/C=C/C(=O)Nc1cccc(N2C(=O)N(Cc3ccccc3)CCc3cnc(Nc4cn(C5CCN(C)CC5)nc4Cl)nc32)c1 [Compound 8, (E)-N-(3-(7-benzyl-2-((3-chloro-1-(1-methylpiperidin-4-yl)-1H-pyrazol-4-yl)amino)-8-oxo-5,6,7,8-tetrahydro-9H-pyrimido[4,5-d][1,3]diazepin-9-yl)phenyl)-4-(dimethylamino)but-2-enamide]
388 nM | > 10000 nM | 492 nM | C=CC(=O)Nc1cccc(N2C(=O)N(Cc3ccccc3)CCc3cnc(NC4CCOCC4)nc32)c1 [Compound 25, N-(3-(7-benzyl-8-oxo-2-((tetrahydro-2H-pyran-4-yl)amino)-5,6,7,8-tetrahydro-9H-pyrimido[4,5-d][1,3]diazepin-9-yl)phenyl)acrylamide]
318 nM | 20 nM | 325 nM | C=CC(=O)Nc1cccc(N2C(=O)N(c3ccccc3)CCc3cnc(Nc4ccc(C5CCN(C)CC5)cc4)nc32)c1 [Compound 36, N-(3-(2-((4-(1-methylpiperidin-4-yl)phenyl)amino)-8-oxo-7-phenyl-5,6,7,8-tetrahydro-9H-pyrimido[4,5-d][1,3]diazepin-9-yl)phenyl)acrylamide]
2790 nM | 225 nM | 3480 nM | Cc1cc(Nc2ncc3c(n2)N(c2cccc(NC(=O)/C=C/CN(C)C)c2)C(=O)N(c2ccccc2)CC3)ccc1N1CCN(C)CC1 [Compound 34, (E)-4-(dimethylamino)-N-(3-(2-((3-methyl-4-(4-methylpiperazin-1-yl)phenyl)amino)-8-oxo-7-phenyl-5,6,7,8-tetrahydro-9H-pyrimido[4,5-d][1,3]diazepin-9-yl)phenyl)but-2-enamide]
